Data set [1] deals with SMMC-7721. As to the kind of experiment: Induction of apoptosis in human SMMC-7721 cells assessed as early apoptotic cells at 5 uM incubated for 24 hrs by Annexin V-PE/7-AAD staining based flow cytometry analysis (Rvb= 0.231%). Type of data set: functional. In general terms: In flow cytometry, cells or beads pass a laser one at a time.
The subject of data set [2] is SMMC-7721. As to the kind of experiment: Induction of apoptosis in human SMMC-7721 cells assessed as viable cells at 5 uM incubated for 24 hrs by Annexin V-PE/7-AAD staining based flow cytometry analysis (Rvb= 98.6%). It counts as functional. As to conditions: read-out: Activity.
For data set [3], the system named is SMMC-7721. Briefly: Induction of apoptosis in human SMMC-7721 cells assessed as late apoptotic cells at 5 uM incubated for 24 hrs by Annexin V-PE/7-AAD staining based flow cytometry analysis (Rvb= 0.627%). Type of data set: functional.
For data set [4], the system named is SMMC-7721. As to the kind of experiment: Induction of apoptosis in human SMMC-7721 cells assessed as necrotic cells at 5 uM incubated for 24 hrs by Annexin V-FITC/PI staining based flow cytometry analysis (Rvb= 0.572%). It counts as functional.
For data set [5], the system named is MDA-MB-231. Briefly: Cytotoxicity against human MDA-MB-231 cells assessed as reduction in cell viability incubated for 48 hrs by MTS assay. As to conditions: MDA-MB-231, 48 h. It counts as functional, cell-based. For orientation: Tetrazolium assays rely on reduction of a dye to a coloured formazan, in cell work by metabolically active cells.
Data set [6] deals with MDA-MB-231. As to the kind of experiment: Growth inhibition in human MDA-MB-231 cells assessed as reduction in cell viability at 40 uM incubated for 48 hrs by MTS assay relative to control. It counts as functional. As to conditions: read-out: GI.
In data set [7] the test system is HL-60. As to the kind of experiment: Growth inhibition in human HL-60 cells assessed as reduction in cell viability at 40 uM incubated for 48 hrs by MTS assay relative to control. It counts as functional. As to conditions: read-out: GI.
The test system of data set [8] is SMMC-7721. As to the kind of experiment: Cytotoxicity against human SMMC-7721 cells assessed as reduction in cell viability incubated for 48 hrs by MTS assay. As to conditions: SMMC-7721, 48 h. Type of data set: functional, cell-based.
In data set [9] the test system is SW480. Briefly: Cytotoxicity against human SW480 cells assessed as reduction in cell viability incubated for 48 hrs by MTS assay. As to conditions: SW480, 48 h. Type of data set: functional, cell-based.
Data set [10] has as its system SW480. Briefly: Growth inhibition in human SW480 cells assessed as reduction in cell viability at 40 uM incubated for 48 hrs by MTS assay relative to control. Type of data set: functional. The conditions noted are these: read-out: GI.
For data set [11], the system named is A549. Briefly: Growth inhibition in human A549 cells assessed as reduction in cell viability at 40 uM incubated for 48 hrs by MTS assay relative to control. Type of data set: functional. The conditions noted are these: read-out: GI.
Data set [12] has as its system SMMC-7721. Briefly: Growth inhibition in human SMMC-7721 cells assessed as reduction in cell viability at 40 uM incubated for 48 hrs by MTS assay relative to control. Type of data set: functional. The conditions noted are these: read-out: GI.
Data set [13] has as its system A549. Briefly: Cytotoxicity against human A549 cells assessed as reduction in cell viability incubated for 48 hrs by MTS assay. Type of data set: functional, cell-based. As to conditions: A549, 48 h.
The nature of data set [14]: Cytotoxicity against human BEAS-2B cells assessed as reduction in cell viability incubated for 48 hrs by MTS assay. Type of data set: toxicity, cell-based.
Data set [15] has as its system HL-60. Briefly: Cytotoxicity against human HL-60 cells assessed as reduction in cell viability incubated for 48 hrs by MTS assay. Type of data set: functional, cell-based. As to conditions: HL-60, 48 h.
The test system of data set [16] is SMMC-7721. As to the kind of experiment: Induction of apoptosis in human SMMC-7721 cells assessed as late apoptotic cells at 20 uM incubated for 24 hrs by Annexin V-PE/7-AAD staining based flow cytometry analysis (Rvb= 0.627%). Type of data set: functional.
In data set [17] the test system is SMMC-7721. As to the kind of experiment: Induction of apoptosis in human SMMC-7721 cells assessed as late apoptotic cells at 10 uM incubated for 24 hrs by Annexin V-PE/7-AAD staining based flow cytometry analysis (Rvb= 0.627%). Type of data set: functional.
For data set [18], the system named is SMMC-7721. Briefly: Induction of apoptosis in human SMMC-7721 cells assessed as necrotic cells at 20 uM incubated for 24 hrs by Annexin V-FITC/PI staining based flow cytometry analysis (Rvb= 0.572%). Type of data set: functional.
Data set [19] relates to SMMC-7721. Briefly: Induction of apoptosis in human SMMC-7721 cells assessed as early apoptotic cells at 10 uM incubated for 24 hrs by Annexin V-PE/7-AAD staining based flow cytometry analysis (Rvb= 0.231%). It counts as functional.
The test system of data set [20] is SMMC-7721. As to the kind of experiment: Induction of apoptosis in human SMMC-7721 cells assessed as early apoptotic cells at 20 uM incubated for 24 hrs by Annexin V-PE/7-AAD staining based flow cytometry analysis (Rvb= 0.231%). It counts as functional.
Data set [21] has as its system SMMC-7721. As to the kind of experiment: Induction of apoptosis in human SMMC-7721 cells assessed as necrotic cells at 10 uM incubated for 24 hrs by Annexin V-FITC/PI staining based flow cytometry analysis (Rvb= 0.572%). It counts as functional.
The subject of data set [22] is SMMC-7721. As to the kind of experiment: Induction of apoptosis in human SMMC-7721 cells assessed as viable cells at 10 uM incubated for 24 hrs by Annexin V-PE/7-AAD staining based flow cytometry analysis (Rvb= 98.6%). As to conditions: read-out: Activity. It counts as functional.
Data set [23] concerns SMMC-7721. Briefly: Induction of apoptosis in human SMMC-7721 cells assessed as viable cells at 20 uM incubated for 24 hrs by Annexin V-PE/7-AAD staining based flow cytometry analysis (Rvb= 98.6%). It counts as functional. The conditions noted are these: read-out: Activity.

Consider `COc1cccc2c1C(=O)c1c(O)c3c(c(O)c1C2=O)C[C@@](O)(C(=O)CO)C[C@@H]3O[C@H]1C[C@H](N)[C@H](O)[C@H](C)O1` [DOXORUBICIN], for which the Activity in [1] amounted to 0.796%; in data set [3] it was 96%; in data set [4] it was 1.85%. Also, in data set [2], the viability at 5 µM was found to be 1.34%.
For orientation: IC50 means the concentration that inhibits the measured activity by half. With `CC(C)(O)CCc1c(O)cc(O)c2c(=O)c3ccc(O)c(O)c3oc12`, the half-maximal inhibitory concentration (IC50) was 27300 nM in [5]; 2200 nM in data set [8]; 6100 nM in [9]; 7200 nM in [13]; 3900 nM in data set [15]. Besides, the inhibition of growth at 40 µM in data set [6], in data set [7], in data set [10], in data set [11] and in data set [12] was more than 50% in each case. For the same molecule, the IC50 at 48 h in data set [14] came out at 20400 nM.
With `CC(C)=CC[C@@]12OC(C)(C)[C@@H]3C[C@H](C=C4C(=O)c5c(O)cc(O)c(CCC(C)(C)O)c5O[C@]431)C2=O`, the IC50 in data set [5] was found to be 6200 nM; in data set [8], 2100 nM; in data set [9] it was 3800 nM; in data set [13], 2900 nM; in data set [15] it was 4900 nM. Also, the inhibition of growth at 40 µM in data set [6], in [7], in data set [10], in data set [11] and in data set [12] was more than 50% in each case. In [14], the concentration for half-maximal inhibition (IC50) at 48 h is 7700 nM.
`CC(C)=CC[C@@]12OC(C)(C)[C@@H]3C[C@H](C=C4C(=O)c5c(O)cc6c(c5O[C@]431)CCC(C)(C)O6)C2=O`: the IC50 in data set [5] turned out to be 2300 nM; in data set [8] it was 1000 nM; in [9], 1000 nM; in data set [13] it was 2900 nM; in data set [15] it was 1700 nM. Moreover, the inhibition of growth at 40 µM in [6], in data set [7], in [10], in [11] and in [12] was more than 50% throughout. The IC50 at 48 h in data set [14] worked out at 1100 nM.
As for `CC(C)=CCc1c(O)cc(O)c2c1O[C@]13C(=C[C@H]4C[C@H]1C(C)(C)O[C@@]3(CC=C(C)C)C4=O)C2=O`, the IC50 was determined as 1300 nM in data set [5]; 500 nM in [8]; 1000 nM in data set [9]; 800 nM in [13]; 1100 nM in [15]. Also, the inhibition of growth at 40 µM in data set [6], in data set [7], in data set [10], in data set [11] and in [12] was more than 50% each time. Moreover, the half-inhibitory concentration (IC50) at 48 h in [14] is 700 nM.
For the molecule `CC1(C)C=Cc2c(cc(O)c3c(=O)c4ccc(O)c(O)c4oc23)O1`, the half-inhibitory concentration (IC50) in data set [5] stood at 8900 nM; in data set [8], 2200 nM; in data set [9], 4000 nM; in [13] it was 3900 nM. For the same molecule, the inhibition of growth at 40 µM in [6], in data set [7], in [10], in data set [11] and in data set [12] was more than 50% in each case. Further, the IC50 at 48 h in data set [14] was 21100 nM.
For `CC(C)=CC[C@@]12OC(C)(C)[C@@H]3C[C@H](C=C4C(=O)c5c(O)cc(O)cc5O[C@]431)C2=O`, the Activity in [16] was determined as 68.7%; in [17] it was 29.1%; in [1], 3.74%; in data set [18] it was 3.79%; in [19], 12.7%; in data set [20] it was 20.5%. For the same molecule, the Activity in [3] is reported as 9.08%; in data set [21] it was 8.22%; in [4], 1.8%. The IC50 in data set [5] came to 5700 nM; in data set [8], 1400 nM; in data set [9], 3700 nM; in data set [13], 2600 nM; in data set [15], 6300 nM. Also, the inhibition of growth at 40 µM in [6], in data set [7], in [10], in data set [11] and in [12] was more than 50% in each case. Besides, in data set [2], the viability at 5 µM came out at 85.4%. In addition, in data set [22], the viability at 10 µM worked out at 50%. The half-inhibitory concentration (IC50) at 48 h in data set [14] is 3200 nM. In data set [23], the viability at 20 µM came out at 6.98%.

Source of the values: ChEMBL document CHEMBL5370577, “Structurally Diverse Cytotoxic Polyphenols from Garcinia gracilis” (J Nat Prod, 2023).
